The values below come from patent US11149056B2, “C7 substituted oxysterols and methods of use thereof” (Sage Therapeutics, Inc., priority 2016, dated 2021).

The target of test [1] is glutamate-activated channels of the GRIN1/2A subtype (Homo sapiens (Human), UniProt Q05586+Q12879). Kind of test: Automated patch-clamp (QPatch HTX), NMDA receptor GRIN1/2A in HEK 293 cells. Format: cell-based. As to conditions: HEK 293 cells stably transfected with GRIN1/2A; 300 μM NMDA + 8 μM glycine; holding potential −80 mV; read-out: AVG_ EC50 2A. As to the method: (§1) Automated Patch-Clamp System (OPatch HTX)
In this study, HEK 293 cells stably transfected with glutamate-activated channels of the GRIN1/2A subtype will be used together with submaximal NMDA concentrations (300 μM NMDA, co-application with 8 μM Glycine) to investigate the negative allosteric modulation of the test compounds.
(§2) In general, cells will be passaged at a confluence of about 80% to […]. For electrophysiological measurements cells will be harvested at a confluence of about 80% to 90% from sterile culture flasks containing culture complete medium. Cells will be transferred as suspension in PBS to the QPatch 16X or QPatch HTX system to; the centrifuge/washer directly. Standard Laboratory Conditions; Cells will be incubated at 37° C. in a humidified atmosphere with 5% CO2 (rel. humidity about 95%). Culture media: The cells will be continuously maintained in and passaged in sterile culture flasks containing a 1:1 mixture of Dulbecco's modified eagle medium and nutrient mixture F-12 (D-MEM/F-12 1×, liquid, with L-Glutamine) supplemented with 10% fetal bovine serum, 1% Penicillin/Streptomycin solution, and 50 μM AP-5 blocker. Antibiotics: The complete medium as indicated above is supplemented with 100 μg/mL hygromycin, 15 μg/mL blasticidin and 1 μg/mL puromycin. Induction of Expression-. 2.5 μg/mL tetracycline is added 24 h before start of experiments. Dose Formulation Dose levels are in terms of test compounds, as supplied. Vehicle will be added to achieve a stock concentration of 10 mM (storage at −10° C. to −30° C.). A further stock solutions of 1.0 mM will be prepared in DMSO. Details of stock solution usage (thawing, dose formulations) will be documented in the raw data. The time period of stock solution usage will be detailed in the report. Test Compound Concentrations Dose levels, are in terms of test compounds, as supplied. Vehicle will be added to achieve a stock concentration of 10 mM (storage at −10° C. to −30° C.). A further stock solutions of 1.0 mM will be prepared in DMSO. Details of stock solution usage (thawing, dose formulations) will be documented in the raw data. The time period of stock solution usage will be detailed in the report. One test concentration of 1.0 μM will be tested. All test solutions will be prepared by diluting the stock solutions with either Mg-free bath solution only or Mg-free bath solution containing NMDA (300 μM) and glycine (8.0 μM) shortly prior to the electrophysiological experiments and kept at room temperature (19° C. to 30° C.) when in use. 0.1% DMSO will be used as vehicle. Frequency of preparation. For each test concentration, fresh solutions of test compounds will be prepared every day. Stability of dose formulation: All preparation times will be documented in the raw data. Any observations regarding instability of test compounds will be mentioned in the raw data. Storage of dose formulation: On the day of experimentation dose formulations will be maintained at room temperature (19° C. to 30° C.) when in use, Bath Solutions For preparing the experiments and for formation of the giga-ohm-seal, the following standard bath solution will be used: Sodium Chloride: 137 mM; Potassium Chloride: 4 mM; Calcium Chloride: 1.8 mM; Magnesium Chloride: 1 mM; HEPES: 10 mM; D-Glucose: 10 mM; Cremophor: 0.02%; pH (NaOH): 7.4
The 1× bath solution will be prepared by diluting 10× bath solution without Glucose and 100× Glucose solution with water at least every 7 days. Both stock solutions have been prepared prior to the experimental start of the present study and stored at 1° C. to 9° C. (10× bath solution) or −10° C. to −30° (100× Glucose solution). The batch number(s) of the bath solution(s) used in the experiments will be documented in the raw data. When muse, the 1× bath solution will be kept at room temperature (19° C. to 30° C.). When not in use, the 1× bath solution will be stored at 1° C. to 9° C.
After the giga-seal was formed the following Mg-free bath solution will be used: […]
Background: Patch clamp records ionic current or voltage across a cell membrane.

For another test, the target named is NMDA receptor 2B (Homo sapiens (Human), UniProt Q05586+Q13224). As to the kind of experiment: Automated patch-clamp (QPatch HTX), NMDA receptor 2B subtype. As to conditions: for Emax: read-out: AVG_ EMAX 2B %. Format: cell-based. As for the experimental part: as §1, §2
The 1× intracellular solution will be thawed every day out of a frozen 1× intracellular solution, which has been prepared prior to the experimental start of the present study, aliquoted and stored at −10° C. to −30° C. When in use, the 1× intracellular solution will kept at room temperature (19° C. to 30° C.). Remaining 1× intracellular solution will be stored in the fridge (1° C. to 9° C.). The 1× intracellular solution will include the components outlined below: Potassium Chloride: 130 mM; Magnesium Chloride: 1 mM; Mg-ATP: 5 mM; HEPES: 10 mM; EGTA: 5 mM; pH (KOH): 7.2 Cell Treatment For this study, cells will continuously be perfused with NMDA/Glycine, Test Compound or Test Compound/NMDA/Glycin. In every case, at least 30-second prewash steps with a test compound will be performed in between applications. For details see Table A below. Each experiment type will be analyzed in at least n=3 isolated cells. […]

pEC50: −log10 of the molar value.

Sequence of glutamate-activated channels of the GRIN1/2A subtype (Q12879 23-1464, other chains not shown): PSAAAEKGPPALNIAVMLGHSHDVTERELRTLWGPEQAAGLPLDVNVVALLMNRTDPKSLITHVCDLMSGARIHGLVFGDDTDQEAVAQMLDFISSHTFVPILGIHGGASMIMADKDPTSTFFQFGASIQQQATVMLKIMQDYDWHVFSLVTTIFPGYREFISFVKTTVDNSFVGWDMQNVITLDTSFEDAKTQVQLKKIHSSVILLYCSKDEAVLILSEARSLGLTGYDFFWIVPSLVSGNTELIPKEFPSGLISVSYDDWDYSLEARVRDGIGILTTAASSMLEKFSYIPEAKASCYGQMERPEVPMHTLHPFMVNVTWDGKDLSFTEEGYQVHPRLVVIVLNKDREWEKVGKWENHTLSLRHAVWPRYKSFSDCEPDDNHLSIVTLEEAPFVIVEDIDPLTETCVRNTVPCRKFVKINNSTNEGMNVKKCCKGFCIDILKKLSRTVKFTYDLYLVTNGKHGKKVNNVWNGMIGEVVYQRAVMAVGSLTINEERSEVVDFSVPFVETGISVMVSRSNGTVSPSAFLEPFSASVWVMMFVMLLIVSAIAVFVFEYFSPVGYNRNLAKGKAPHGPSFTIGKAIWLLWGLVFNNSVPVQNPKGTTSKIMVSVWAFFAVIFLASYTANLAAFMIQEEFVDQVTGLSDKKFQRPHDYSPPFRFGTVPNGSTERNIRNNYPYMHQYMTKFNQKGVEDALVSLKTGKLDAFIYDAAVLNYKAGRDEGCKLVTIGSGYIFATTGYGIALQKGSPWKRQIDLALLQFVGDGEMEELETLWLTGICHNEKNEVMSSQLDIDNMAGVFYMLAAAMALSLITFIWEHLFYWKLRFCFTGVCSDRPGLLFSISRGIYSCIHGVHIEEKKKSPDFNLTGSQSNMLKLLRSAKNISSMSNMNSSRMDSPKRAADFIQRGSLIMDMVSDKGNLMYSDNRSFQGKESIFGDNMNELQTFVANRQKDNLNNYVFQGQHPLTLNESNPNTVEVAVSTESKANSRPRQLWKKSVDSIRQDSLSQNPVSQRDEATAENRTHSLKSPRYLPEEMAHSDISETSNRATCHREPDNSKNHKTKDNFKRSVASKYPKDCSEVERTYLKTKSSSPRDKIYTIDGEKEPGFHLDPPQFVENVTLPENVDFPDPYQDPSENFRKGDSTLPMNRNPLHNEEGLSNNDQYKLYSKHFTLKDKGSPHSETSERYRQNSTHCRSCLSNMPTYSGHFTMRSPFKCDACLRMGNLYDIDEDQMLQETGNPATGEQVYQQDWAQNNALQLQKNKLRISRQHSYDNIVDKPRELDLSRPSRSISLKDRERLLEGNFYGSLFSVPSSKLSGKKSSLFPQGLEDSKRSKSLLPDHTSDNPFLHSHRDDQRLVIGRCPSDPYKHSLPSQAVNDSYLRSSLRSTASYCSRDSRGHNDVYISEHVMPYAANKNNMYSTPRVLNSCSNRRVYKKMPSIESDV
Sequence of NMDA receptor 2B (Q13224 27-1484, other chains not shown): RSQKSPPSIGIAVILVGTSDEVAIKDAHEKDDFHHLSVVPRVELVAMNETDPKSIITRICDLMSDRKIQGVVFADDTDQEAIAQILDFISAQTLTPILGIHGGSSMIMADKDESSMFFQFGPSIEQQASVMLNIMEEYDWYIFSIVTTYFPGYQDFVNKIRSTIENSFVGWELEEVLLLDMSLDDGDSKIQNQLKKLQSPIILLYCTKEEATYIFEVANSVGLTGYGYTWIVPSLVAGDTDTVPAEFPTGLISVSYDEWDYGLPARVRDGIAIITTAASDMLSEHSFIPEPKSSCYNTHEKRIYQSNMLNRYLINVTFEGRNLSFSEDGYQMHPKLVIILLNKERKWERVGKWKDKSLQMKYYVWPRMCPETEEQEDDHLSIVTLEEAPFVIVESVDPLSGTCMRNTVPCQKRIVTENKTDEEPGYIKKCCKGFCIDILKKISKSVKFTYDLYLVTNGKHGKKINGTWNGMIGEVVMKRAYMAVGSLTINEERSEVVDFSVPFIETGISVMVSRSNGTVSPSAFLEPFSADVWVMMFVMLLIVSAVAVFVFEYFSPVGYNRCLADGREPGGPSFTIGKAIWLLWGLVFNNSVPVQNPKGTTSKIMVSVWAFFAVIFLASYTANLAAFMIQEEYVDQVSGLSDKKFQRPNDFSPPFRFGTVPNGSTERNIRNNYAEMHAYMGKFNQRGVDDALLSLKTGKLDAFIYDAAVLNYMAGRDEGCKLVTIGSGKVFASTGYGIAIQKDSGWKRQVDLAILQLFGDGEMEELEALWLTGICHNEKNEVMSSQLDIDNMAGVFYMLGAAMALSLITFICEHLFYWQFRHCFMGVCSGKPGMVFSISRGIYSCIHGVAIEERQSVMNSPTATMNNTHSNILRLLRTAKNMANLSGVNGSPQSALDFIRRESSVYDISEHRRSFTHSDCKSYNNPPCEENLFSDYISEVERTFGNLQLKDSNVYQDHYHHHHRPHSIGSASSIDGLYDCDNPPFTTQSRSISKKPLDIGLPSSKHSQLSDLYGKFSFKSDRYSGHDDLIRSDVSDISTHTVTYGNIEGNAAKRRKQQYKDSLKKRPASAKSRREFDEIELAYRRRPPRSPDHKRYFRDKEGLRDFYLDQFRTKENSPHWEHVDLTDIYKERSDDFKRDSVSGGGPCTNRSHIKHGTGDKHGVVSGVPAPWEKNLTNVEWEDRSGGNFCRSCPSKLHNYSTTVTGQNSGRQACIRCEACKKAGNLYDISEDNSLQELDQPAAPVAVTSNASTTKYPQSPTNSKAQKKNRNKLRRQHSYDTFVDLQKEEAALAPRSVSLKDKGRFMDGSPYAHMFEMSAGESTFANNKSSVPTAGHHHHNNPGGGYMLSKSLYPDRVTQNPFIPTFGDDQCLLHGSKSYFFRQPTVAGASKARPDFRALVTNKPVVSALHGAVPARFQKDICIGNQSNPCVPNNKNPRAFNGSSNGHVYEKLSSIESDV

As usually defined, the pEC50 is the negative decadic logarithm of the EC50, by convention in mol/L. One may read the Emax as the size of the effect at its maximum, as opposed to the concentration needed. With `CC[C@]1(O)CC[C@@]2(C)[C@@H](CC(=O)[C@@H]3[C@@H]2CC[C@]2(C)[C@@H]([C@H](C)CCC(C)(C)O)CC[C@@H]32)C1` [Compound U6410], the pEC50 (in test [1]; at NMDA receptor 2B) was < 5.00 in each case. The Emax at NMDA receptor 2B was found to be 44%.

With `C[C@@H]1C=C2C[C@@](C)(O)CC[C@]2(C)[C@H]2CC[C@]3(C)[C@@H]([C@H](C)CC4(O)CCC(C)(C)CC4)CC[C@H]3[C@H]12` [Compound U6477], in test [1], the pEC50 was 6.13. Besides, on NMDA receptor 2B, the pEC50 was 6.16 and the Emax was determined as 86%.

Take `C[C@H](CC[C@](C)(O)C(F)(F)F)[C@H]1CC[C@H]2[C@@H]3[C@@H](C)C=C4C[C@@](C)(O)CC[C@]4(C)[C@H]3CC[C@]12C` [Compound U6473]: at NMDA receptor 2B, the pEC50 is < 5.00 and the Emax came out at 47%.

For the compound `CC[C@]1(O)CC[C@@]2(C)C(=C[C@](C)(O)[C@H]3[C@@H]4CC[C@H]([C@H](C)CCC(C)(C)O)[C@@]4(C)CC[C@@H]32)C1` [Compound U6437], the pEC50 in test [1] was 5.79; at NMDA receptor 2B, 6.13. Further, the Emax on NMDA receptor 2B was 213%.

Take `CC[C@]1(O)CC[C@@]2(C)C(=C[C@@H](C)[C@H]3[C@@H]4CC[C@H]([C@H](C)CCC(C)(C)O)[C@@]4(C)CC[C@@H]32)C1` [Compound U6408]: the negative-log EC50 (pEC50) in test [1] is 6.64. On NMDA receptor 2B, the negative-log EC50 (pEC50) was 6.88 and the Emax came to 447%.

Take `CC[C@]1(O)CC[C@@]2(C)[C@@H](C[C@H](O)[C@@H]3[C@@H]2CC[C@]2(C)[C@@H]([C@H](C)CCC(C)(C)O)CC[C@@H]32)C1` [Compound U6479]: in test [1], the pEC50 was < 5.00. Also, on NMDA receptor 2B, the pEC50 was 5.85 and the maximal effect (Emax) stood at 92%.

Regarding `CC[C@]1(O)CC[C@@]2(C)C(=C[C@H](O)[C@H]3[C@@H]4CC[C@H]([C@H](C)CCC(C)(C)O)[C@@]4(C)CC[C@@H]32)C1` [Compound U6429], on NMDA receptor 2B, the negative logarithm of the EC50 (pEC50) was 6.18 and the maximal effect (Emax) was 109%.

On to `C[C@H](CC1(O)CCC(C)(C)CC1)[C@H]1CC[C@H]2[C@@H]3[C@@H](C)C=C4C[C@@](C)(O)CC[C@]4(C)[C@H]3CC[C@]12C` [Compound U6478], for which the pEC50 in test [1] was 6.72; at NMDA receptor 2B it was 6.80. For the same compound, at NMDA receptor 2B, the maximal effect (Emax) stood at 127%.

Turning to `CC[C@]1(O)CC[C@@]2(C)C(=CC(=O)[C@H]3C4CC[C@H]([C@H](C)CCC(C)(C)O)[C@@]4(C)CC[C@@H]32)C1` (some centres unmarked) [Compound U6461], the negative-log EC50 (pEC50) (in test [1]; at NMDA receptor 2B) was < 5.00 each time. On NMDA receptor 2B, the Emax was 53%.

Take `CC[C@]1(O)CC[C@@]2(C)C(=C[C@H](C)[C@H]3[C@@H]4CC[C@H]([C@H](C)CCC(C)(C)O)[C@@]4(C)CC[C@@H]32)C1` [Compound U6409]: the pEC50 (in test [1]; at NMDA receptor 2B) was < 5.00 in each case. In addition, the maximal response (Emax) at NMDA receptor 2B came to 71%.

In the case of `CC[C@]1(O)CC[C@@]2(C)C(=C[C@@](C)(O)[C@H]3[C@@H]4CC[C@H]([C@H](C)CCC(C)(C)O)[C@@]4(C)CC[C@@H]32)C1` [Compound U6438], the pEC50 (in test [1]; on NMDA receptor 2B) was < 5.00 each time. On NMDA receptor 2B, the Emax turned out to be 15%.

Regarding `CC[C@]1(O)CC[C@@]2(C)C(=C[C@@H](O)[C@H]3[C@@H]4CC[C@H]([C@H](C)CCC(C)(C)O)[C@@]4(C)CC[C@@H]32)C1` [Compound U6450], at NMDA receptor 2B, the negative-log EC50 (pEC50) was 7.18 and the maximal effect (Emax) is 111%.

Consider `C[C@@H]1C=C2C[C@@](C)(O)CC[C@]2(C)[C@H]2CC[C@]3(C)[C@@H]([C@H](C)CC[C@](C)(O)C(F)(F)F)CC[C@H]3[C@H]12` [Compound U6472], for which, at NMDA receptor 2B, the pEC50 is 7.66 and the maximal effect (Emax) was 231%.
